Data from patent US20240390353A1, “METHOD OF TREATMENT WITH TRADIPITANT” (Vanda Pharmaceuticals Inc., priority 2018, published 2024).
Entries after “also recorded” stand apart in the source; their conditions may differ.

System: otherwise healthy adults reporting regular illicit opioid misuse
Experiment: Double-blind within-subject crossover inpatient study: subject-rated outcomes of intranasal oxycodone during tradipitant vs placebo maintenance (sample sessions)
Format: in vivo, human
Method: A double-blind, inpatient, approximately 6 week study employing a within-subject crossover design examines the effects of maintenance with tradipitant as compared to placebo on response to oxycodone. Study subjects include otherwise healthy adults reporting regular illicit opioid misuse, and history of intranasal opioid use without physical dependence.
Subjects are administered placebo or tradipitant (85 mg p.o., bid) on study days 3-17 with a washout period on days 18-23, followed by administration of placebo or tradipitant (85 mg p.o., bid) on study days 24-39. In the study, tradipitant/placebo administration is counterbalanced across subjects. On study days 3, […], 24, and 39, subjects participate in challenge sessions (day 1 and steady state) in which they receive 0, 5, 10, or 20 mg intranasal (IN) oxycodone at 1 hr. intervals, after which effect of tradipitant on analgesia in humans is evaluated. On study days 2, 8, 11, 15, 29, 32, and 36, subjects participate in sample sessions in which subjects are administered 0, 15, or 30 mg IN oxycodone, after which effect of tradipitant on subject-rated outcomes is evaluated. Such subject-rated outcomes include responses to questions including “how much do you like the drug,” “does the drug have any good effects,” “do you feel any drug effect,” and “how much do you desire opiates right now?” Further, on study days 9, 12, 16, 30, 33, and 37, subjects participate in choice sessions, in which effect of tradipitant on oxycodone self-administration is evaluated.

[1] = 0, 15 or 30 mg IN oxycodone, difference from 0 mg
[2] = tradipitant 85 mg p.o. bid maintenance, at some opioid drug doses, e.g. 15 mg IN oxycodone, FIGS. 1-3

Compound | effect of oxycodone dose on trough scores for desire for opioids (0, 15 or 30 mg IN oxycodone) | peak ratings of good effects [1] | peak ratings of liking for the drug [1] | peak ratings of overall drug effect [1] | desire for opioids (cravings), trough scores ("how much do you desire opiates right now?") (tradipitant 85 mg p.o. bid maintenance compared to placebo maintenance, 0, 15 or 30 mg IN oxycodone, FIG. 4) | perception of how good the effects of the drug were [2] | perception of how much of a drug effect was felt [2] | perception of how much the opioid drug was liked [2] | pleasurable and drug seeking sensations (tradipitant maintenance, at some doses)
COc1ccc2c3c1O[C@H]1C(=O)CC[C@@]4(O)[C@@H](C2)N(C)CC[C@]314 [Oxycodone, oxycodone, reference compound] | no significant effect | significant and dose-dependent increases | significant and dose-dependent increases | significant and dose-dependent increases |  |  |  |  | 
O=C(c1ccccc1Cl)c1cccnc1-c1nnn(Cc2cc(C(F)(F)F)cc(C(F)(F)F)c2)c1-c1ccncc1 [tradipitant] |  |  |  |  | diminished; also recorded: reduces | decreases | decreases | decreases | decreases
